Experimental data from patent US11266715B2, “C3A receptor agonists for use against ischemic brain injury, stroke, traumatic brain injury, spinal cord injury and neurodegenerative disorders” (priority 2016, dated 2022).

How the values were obtained:
[1] = tested on: WT mice subjected to photothrombotic stroke in the motor cortex; assay: Grid walking task after photothrombotic stroke; assay type: in vivo, mouse
Experimental: Cortical photothrombosis was induced using the Rose Bengal method (Lee et al., 2007; Watson et al., 1985) with some modifications. Anesthesia was induced with isoflurane (Forene®, Abbott) in air and oxygen (1:1) initially at 5% and reduced to 2.5% during the surgical procedure. Body temperature was monitored by a rectal probe and maintained at 37° C. using a homeothermic control unit (Harvard Apparatus). Anesthetized mice were placed in a stereotaxic frame, the skull was exposed through a midline scalp incision and Rose Bengal (200 μl, 10 mg/ml solution in sterile saline, Sigma) was injected intraperitoneally. After 5 min, the skull and underlying brain tissue were illuminated for 12 min by a 2 mm diameter cold laser beam (50 mW, 561 nm; Cobolt AB) positioned at AP +0.5 mm and ML −2.7 mm relative to Bregma, targeting the border between left primary somatosensory and motor cortex (Porritt et al., 2012). For intervention experiments targeting motor cortex, stroke was induced as above with the following modifications: Transcranial illumination lasting 15 min was delivered using cold light source (LQ1600, Fiberoptic-Heim AG) equipped with 2 mm wide fiber optic probe and directed to AP +0 and ML −1.5 relative to Bregma. After illumination, the scalp was sutured and mice were placed in a warm cage for 45 min to recover from anesthesia prior to being returned to the home cage. Mice were provided with moist mashed food placed on the floor of the home cage and their weight was monitored daily for 7 days after surgery. There were no significant differences in body weight, body temperature (36.5±0.5° C.), duration of surgery, or post-stroke mortality between cohorts. Each cohort contained an even distribution of mice from the matched strains or treatment groups.
Purified human C3a peptide (Complement Technologies) was diluted in sterile phosphate buffered saline (PBS) to a concentration of 200 nM and a total of 20 μl (10 μl/nostril; corresponding to approximately 1.13 μg/kg body weight) of peptide solution or PBS was given intranasally to awake, hand-restrained mice held in a supine position. Solutions were administered through a pipette tip, drop-wise in 5 μl portions divided by 1 min intervals to allow for absorption. C3a or PBS was given every 24 hours on days 7 to 21 post-stroke for the short-term study or on days 7 to 28 post-stroke for the long-term study. Mice were assigned to C3a or PBS treatment using randomization stratified by body weight to avoid potential confounding effects of body weight on behavioural performance. The investigators carrying out behavioural studies and analysing data were blinded to treatment group. For the assessment of potential systemic anaphylactic response due to intranasal C3a inoculation, body temperature was monitored using a rectal temperature probe (Harvard Apparatus) inserted approximately 4 mm into the rectum of awake mice restrained by the scruff. Baseline temperature was taken before intranasal administration and 5, 15, 30, 45 and 75 min after C3a or PBS administration.
Functional impairment of mice treated intranasally with C3a or vehicle was assessed using a modified cylinder test and a grid walking task to closely evaluate forepaw function. Mice were tested once on each task one week before stroke induction to establish baseline performance. Next, they were tested on days 7, 14 and 21 (short-term study) or days 7, 14, 28, 42 and 56 (long-term study) post-stroke. […]

[2] = tested on: mice subjected to neonatal HI injury; assay: Cue-induced fear conditioning after neonatal HI injury, 7 days intranasal treatment; assay type: in vivo, mouse
Experimental: In the long-term study (7 days of intranasal treatment), […] of wild-type (WT) and C3aR^−/− mice subjected to neonatal HI injury and treated with either C3a or PBS were used; WT HI-C3a (n=5), WT HI-PBS (n=8), C3aR^−/− HI-C3a (n=7), C3aR^−/− HI-PBS (n=8). These mice were tested in a cue-induced fear conditioning test at P50 and brains were collected at P51 (FIG. 7A).
Neonatal HI injury was induced on postnatal day 9 (P9), as previously described with modifications for mice (Hedtjärn et al., 2002; Rice et al., 1981; Sheldon et al., 1998). Mice were anesthetized with 3.5% isoflurane (Baxter Medical, Kista, Sweden) for induction and 1.5% thereafter, in 1:1 oxygen and nitrous oxide. The left common carotid artery was dissected and permanently ligated with a prolene suture (6.0). […]
Cue-induced fear conditioning with a shock-paired tone and light cue was performed on P49 and P50 as previously described (Järlestedt et al., 2011). […] Freezing behaviour, a defensive response to a perceived threat, was defined as a complete lack of movement and quantified by scoring freezing behaviour (on video footage) as present or absent once every 10 s for 2 min. […] On P50, animals were again placed in the conditioning box and freezing behaviour was measured for 2 min. Following this, the shock-paired tone and light were presented for 30 s and freezing behaviour was then measured again for 2 min. […]

C3a: Purified human C3a peptide (Complement Technologies), C3a receptor agonist, amino acid sequence SEQ ID NO: 1
right foot faults vs PBS-treated mice at days 14 and 56 post-stroke ([1]; long-term study, C3a days 7-28, P=0.0097 and P=0.047, Mann-Whitney U test): significantly fewer right foot faults
grid walking performance day 56 vs pre-stroke baseline ([1]; long-term study, Dunn's test P=0.103): did not differ from pre-stroke baseline levels
foot faults day 14 vs day 7 post-stroke (first week of treatment) ([1]; long-term study, P=0.041 Dunn's test, P=0.039 Wilcoxon test): significant reduction in foot faults
right paw foot faults, days 14 and 21 vs day 7 ([1]; short-term study, C3a days 7-21, P=0.0545 and P=0.0839, Dunnett's test): tendency toward reduced number of right paw foot faults
grid walking performance vs baseline at all time points after stroke ([1]; short-term study, P<0.001, both groups): significant impairment with respect to the baseline performance
extent of freezing, C3a vs PBS ([2]; C3aR−/− mice, same protocol): did not differ
freezing behavior after the conditioned cue vs HI PBS-treated mice ([2]; WT mice, intranasal C3a once daily 7 days from 1 h after HI, p<0.05): significantly increased freezing behavior
